# Test results reported in the supplement of paper PMC11061612.
# Key:
# Test in all cases: combination Emax (second highest fraction inhibited in the dose matrix, 72 h); higher = more inhibition; extreme values may be limits of the assay
# [1] = test system: 42-MG-BA (Glioblastoma)
# Method in brief: (§1)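 Bliss excess equals the observed combination effect minus the expected value EA + EB − EA·EB, where EA and EB are the effects of each agent alone. Combination Emax is the second-highest inhibition within the matrix. Inhibition was scaled from CellTiter-Glo 2.0 luminescence, with 0 set by vehicle wells and 1 by blank wells, after 72 hours of two-drug dosing of cells plated in 1536-well plates.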
# [2] = test system: AGS (Gastric Carcinoma)
# Method in brief: as §1
# [3] = test system: DEL (T-Cell Non-Hodgkin's Lymphoma)
# Method in brief: as §1
# [4] = test system: HO-1-N-1 (Oral Cavity Carcinoma)
# Method in brief: as §1
# [5] = test system: HOS (Osteosarcoma)
# Method in brief: as §1
# [6] = test system: KURAMOCHI (Ovarian Carcinoma)
# Method in brief: as §1
# [7] = test system: KYSE-520 (Esophageal Squamous Cell Carcinoma)
# Method in brief: as §1
# [8] = test system: LU-135 (Small Cell Lung Carcinoma)
# Method in brief: as §1
# [9] = test system: MDA-MB-361 (Breast Carcinoma)
# Method in brief: as §1
# [10] = test system: MFE-296 (Endometrial Carcinoma)
# Method in brief: as §1
# [11] = test system: NB10 (Neuroblastoma)
# Method in brief: as §1
# [12] = test system: NOS-1 (Osteosarcoma)
# Method in brief: as §1
# [13] = test system: OVCA420 (Ovarian Carcinoma)
# Method in brief: as §1
# [14] = test system: RO82-W-1 (Thyroid Gland Carcinoma)
# Method in brief: as §1
# [15] = test system: Ramos-2G6-4C10 (Burkitt's Lymphoma)
# Method in brief: as §1
# [16] = test system: SNU-5 (Gastric Carcinoma)
# Method in brief: as §1
# [17] = test system: T98G (Glioblastoma)
# Method in brief: as §1
# [18] = test system: TCCSUP (Bladder Carcinoma)
# Method in brief: as §1
# [19] = test system: TE-15 (Esophageal Squamous Cell Carcinoma)
# Method in brief: as §1
# [20] = test system: TE-9 (Esophageal Squamous Cell Carcinoma)
# Method in brief: as §1
Compound,combination Emax [1],combination Emax [2],combination Emax [3],combination Emax [4],combination Emax [5],combination Emax [6],combination Emax [7],combination Emax [8],combination Emax [9],combination Emax [10],combination Emax [11],combination Emax [12],combination Emax [13],combination Emax [14],combination Emax [15],combination Emax [16],combination Emax [17],combination Emax [18],combination Emax [19],combination Emax [20]
"Cc1c2c(nn1C)CSCc1cc(n(C)n1)CSc1cc(c3ccccc3c1)OCCCc1c(C(=O)O)n(C)c3c-2c(Cl)ccc13 [AZD5991] + CC1(C)CCC(CN2CCN(c3ccc(C(=O)NS(=O)(=O)c4ccc(NCC5CCOCC5)c([N+](=O)[O-])c4)c(Oc4cnc5[nH]ccc5c4)c3)CC2)=C(c2ccc(Cl)cc2)C1 [Venetoclax] (first compound max 1 µM, 7x7, partner max 1 µM)",0.963,0.665,1,0.979,0.509,0.501,0.183,0.478,0.889,0.593,0.481,0.889,0.187,0.255,0.985,0.147,0.283,0.157,0.173,0.508
"Cc1c2c(nn1C)CSCc1cc(n(C)n1)CSc1cc(c3ccccc3c1)OCCCc1c(C(=O)O)n(C)c3c-2c(Cl)ccc13 [AZD5991] + CCN(CCO)CCCOc1ccc2c(Nc3cc(CC(=O)Nc4cccc(F)c4)[nH]n3)ncnc2c1 [AZD2811] (first compound max 1 µM, 7x7, partner max 1 µM)",1,0.51,1,0.993,0.238,0.376,0.283,0.906,0.913,0.45,0.405,0.809,0.235,0.274,1,0.204,0.585,0.321,0.826,0.251
"Cc1c2c(nn1C)CSCc1cc(n(C)n1)CSc1cc(c3ccccc3c1)OCCCc1c(C(=O)O)n(C)c3c-2c(Cl)ccc13 [AZD5991] + CN(C)CCCOc1ccc(-c2ccc3ncc4c(c3c2)n(C2CCOCC2)c(=O)n4C)cn1 [AZD0156] (first compound max 1 µM, 7x7, partner max 1 µM)",0.986,0.255,1,0.771,0.278,0.359,0.23,0.286,0.791,0.287,0.273,0.753,0.191,0.265,0.988,0.255,0.283,0.162,0.188,0.188
"Cc1c2c(nn1C)CSCc1cc(n(C)n1)CSc1cc(c3ccccc3c1)OCCCc1c(C(=O)O)n(C)c3c-2c(Cl)ccc13 [AZD5991] + C[C@@H]1COCCN1C2=NC(=NC(=C2)C3(CC3)[S@](=N)(=O)C)C4=C5C=CNC5=NC=C4 [AZD6738] (first compound max 1 µM, 7x7, partner max 10 µM)",1,0.821,1,0.928,0.789,0.634,0.583,0.736,0.962,0.791,0.86,1,0.494,0.525,1,0.942,0.875,0.648,0.736,0.366
"Cc1c2c(nn1C)CSCc1cc(n(C)n1)CSc1cc(c3ccccc3c1)OCCCc1c(C(=O)O)n(C)c3c-2c(Cl)ccc13 [AZD5991] + C[C@@H](Nc1cc(F)cc(F)c1)c1cc(C(=O)N(C)C)cc2c(=O)cc(N3CCOCC3)oc12 [AZD8186] (first compound max 1 µM, 7x7, partner max 3 µM)",0.963,0.246,1,0.933,0.174,0.404,0.412,0.417,0.806,0.265,0.179,0.84,0.282,0.367,0.959,0.427,0.501,0.227,0.223,0.135
"Cc1c2c(nn1C)CSCc1cc(n(C)n1)CSc1cc(c3ccccc3c1)OCCCc1c(C(=O)O)n(C)c3c-2c(Cl)ccc13 [AZD5991] + Cc1cc2ncnn2cc1Nc1ncc2c(n1)n(C1CCOCC1)c(=O)n2C [AZD7648] (first compound max 1 µM, 7x7, partner max 10 µM)",0.988,0.233,1,0.794,0.287,0.331,0.365,0.279,0.816,0.267,0.258,0.895,0.201,0.376,1,0.347,0.361,0.25,0.235,0.214
